What was measured:
[1] = test system: HeLa cells; test: Clonogenic survival assay
[2] = test system: HeLa cells; test: Detection of G2 arrest by flow cytometry
[3] = test system: cells from subject C3 (non-XP); test: Repair of lesions in control (non-XP) fibroblasts
[4] = test system: HeLa cells; test: Dual parameter plot assay (click / propidium iodide)
[5] = test system: HeLa cells; test: Reverse alkaline comet assay (ICL formation)
[6] = test system: DNA; test: Detection of click agents in cells by microscopy (Alexa Fluor 647 azide)
[7] = test system: fibroblast cells from XP patients (XP1, XP2); test: Repair of lesions in XP patient fibroblasts
[8] = test system: HeLa FANCD2 KO cells; test: Dual parameter plot assay (click / propidium iodide)
[9] = test system: HeLa cells; test: Repair of lesions in HeLa cells, click reaction and flow cytometry
[10] = test system: primary fibroblast cells from FA patients (FA1, FA2); test: Repair of lesions in FA patient primary fibroblasts
[11] = test system: primary fibroblast cells from non-FA subjects (C3, C4); test: Repair of lesions in non-FA primary fibroblasts; format: cell-based
Description: HeLa, Jurkat and FA or XP primary cells (10^6 per dish) were seeded into 10 cm culture dishes and incubated overnight in culture medium. The following day, samples were treated with 0.5 μM click-Melphalan (Example 1), 0.5 μM click-MonoMelphalan (Example 2) or DMSO vehicle for 1 h. After treatment, cells were PBS-washed and released into medium. At designated time points, samples were harvested and fixed in EtOH 70%. Fixed cells where incubated in a click reaction buffer (50 μM Alexa fluor 647 azide, 1 mM copper (II) sulfate, 100 mM sodium ascorbate, 100 mM Tris-HCl pH 8.0) for 30 min at room temperature and then washed extensively using 3×5% FBS in PBS rinses to remove unbound reporter. Samples were stained with 5 μg/mL propidium iodide in 3% FBS in PBS and then analyzed using an LSR Fortessa flow cytometer (BD Biosciences, San Jose, CA). Ten thousand events were collected for each sample and gated using forward-versus side-scatter to eliminate cell debris and doublets. The data were analyzed using FlowJo software version 7.6.5 (Tree Star, San Carlos, CA).
FA patient skin fibroblast cells were cryopreserved at Saint-Louis Hospital (Paris, France). Informed consents were obtained from the patients and/or their relatives and IRB approval from the INSERM was given under the number 12-078. […]

[12] = test system: FA pathway; details: Semlow et al. 2016; Li et al. 2020; cited from earlier work
[13] = test system: DNA; details: photoactivated by UVA (Dunnick et al. 1987); cited from earlier work

Compound	number of colonies formed (clonogenic survival) [1]	toxicity compared to mono-melphalan [1]	overall biological response, melphalan vs click-melphalan [2]	cells still positive for melphalan [3]	cell cycle phase of positive cells at 12 h [4]	fluorescence at 24 h [4]	repair at 48 h [4]	IR-induced tail moment after pre-treatment [5]	visual comet score in the absence of IR [5]	fluorescence in cells after click reaction [6]	cells still positive for melphalan [7]	cell cycle block and repair until 48 h [8]	effect of added non-clickable melphalan on repair of click-mono-melphalan monoadducts [9]	cells still positive for melphalan [10]	persistence of melphalan-induced lesions [10]	cells still positive for melphalan [11]	repair of psoralen-induced ICLs by FA [12]	type of DNA lesions generated [13]
N[C@@H](Cc1ccc(N(CCCl)CCCl)cc1)C(=O)O [melphalan, (S)-2-amino-3-(4-(bis(2-chloroethyl)amino)phenyl)propanoic acid, reference compound]	similarly reduces the number of colonies formed with no significative differences	higher toxicity of melphalan compared to mono-melphalan	equivalent biological response	25%	most of the HeLa positive cells are blocked in late S-G2	a decrease in fluorescence is observed at 24 h	full repair at 48 h	large decrease in the IR-induced tail moment	neither Melphalan, click-Melphalan (Example 1), mono-melphalan (Comparative Example 1) nor click-mono-melphalan (Example 2) generated a visual comet score beyond the vehicle-treated control	do not present significant levels of fluorescence	~75%	remained blocked in late S-G2 phase until 48 h with unrepaired DNA lesions	inhibited by the addition of non-clickable melphalan during the first 24 h of recovery	~100%	persisted in the FA patient cells up to 48 h	less than 25%	–	–
O=c1ccc2cc3ccoc3cc2o1 [Psoralen]	–	–	–	–	–	–	–	–	–	–	–	–	–	–	–	–	not preferentially repaired by FA	almost exclusively ICLs

From patent US20260308116A1, “TERTIARY AMINE COMPOUNDS CONTAINING AN ALKYNE OR AN AZIDE MOIETY AND THEIR USE” (INSTITUT NATIONAL DE LA SANTÉ ET DE LA RECHERCHE MÉDICALE, priority 2023, published 2026)
